Assay results reported in PubChem BioAssay AID1963421 (Molecular Pharmacology Branch, DTP, NCI, 2024).
Several values for one entry are separate records, joined by “and”; a condition that tells them apart may be missing. Equal values may be shown once.

Tested on: 519858-162-T-J1-PDC complex spheroid growth, % test/control
Assay: Anticancer human tumor 519858-162-T-J1-PDC patient-derived colon adenocarcinoma cell line growth inhibition [Asc]
Details: for viability, T/C: stronger effect = lower value
Procedure, shortened: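 Complex solid-tumor spheroids incorporating human endothelial and mesenchymal stem cells received single agents or combinations over half-log dilution ranges anchored to clinical Cmax.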

[1] = curve of first compound, second compound 0.0316 µM
[2] = curve of first compound, second compound 0.1 µM
[3] = curve of first compound, second compound 0.316 µM
[4] = curve of first compound, second compound 1 µM
[5] = curve of first compound, second compound 3.16 µM
[6] = curve of first compound, second compound 10 µM
[7] = second compound 0.0316 µM, first compound 0.0316 µM
[8] = second compound 0.0316 µM, first compound 0.1 µM
[9] = second compound 0.0316 µM, first compound 0.316 µM
[10] = second compound 0.0316 µM, first compound 1 µM
[11] = second compound 0.0316 µM, first compound 3.16 µM
[12] = second compound 0.0316 µM, first compound 10 µM
[13] = second compound 0.1 µM, first compound 0.0316 µM
[14] = second compound 0.1 µM, first compound 0.1 µM
[15] = second compound 0.1 µM, first compound 0.316 µM
[16] = second compound 0.1 µM, first compound 1 µM
[17] = second compound 0.1 µM, first compound 3.16 µM
[18] = second compound 0.1 µM, first compound 10 µM
[19] = second compound 0.316 µM, first compound 0.0316 µM
[20] = second compound 0.316 µM, first compound 0.1 µM
[21] = second compound 0.316 µM, first compound 0.316 µM
[22] = second compound 0.316 µM, first compound 1 µM
[23] = second compound 0.316 µM, first compound 3.16 µM
[24] = second compound 0.316 µM, first compound 10 µM
[25] = second compound 1 µM, first compound 0.0316 µM
[26] = second compound 1 µM, first compound 0.1 µM
[27] = second compound 1 µM, first compound 0.316 µM
[28] = second compound 1 µM, first compound 1 µM
[29] = second compound 1 µM, first compound 3.16 µM
[30] = second compound 1 µM, first compound 10 µM
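Also: seven day drug exposure begun three days after spheroid seeding.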
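For viability, T/C in this document: 100% = DMSO vehicle wells and lower values mean less viable spheroid.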

Cc1nc(N2CCC3(CC2)COC(C)C3N)c(CO)nc1Sc1ccnc(N)c1Cl (configuration not stated) + Cc1c(S(C)(=O)=O)c(-c2cc(F)cc(N3CCN(c4ccc(NS(=O)(=O)c5ccc(NC(CCN6CCC(C(=O)OCCCP(=O)(O)O)CC6)CSc6ccccc6)c(S(=O)(=O)C(F)(F)F)c5)cc4)CC3)c2)c(-c2ccc(Cl)cc2)n1C(C)C
IC50 [1]: 2.1 µM
IC50 [2]: 0.823 µM
IC50 [3]: > 3 µM
IC50 [4]: > 3 µM
IC50 [5]: > 3 µM
IC50 [6]: > 3 µM
viability, T/C (second compound 0.0316 µM, first compound 0.00949 µM): 90.4%
viability, T/C (second compound 0.0316 µM, first compound 0.03 µM): 106%
viability, T/C (second compound 0.0316 µM, first compound 0.0949 µM): 47.1%
viability, T/C (second compound 0.0316 µM, first compound 0.3 µM): 73.5%
viability, T/C (second compound 0.0316 µM, first compound 0.949 µM): 68%
viability, T/C (second compound 0.0316 µM, first compound 3 µM): 39.9%
viability, T/C (second compound 0.1 µM, first compound 0.00949 µM): 109%
viability, T/C (second compound 0.1 µM, first compound 0.03 µM): 105%
viability, T/C (second compound 0.1 µM, first compound 0.0949 µM): 78.5%
viability, T/C (second compound 0.1 µM, first compound 0.3 µM): 63.9%
viability, T/C (second compound 0.1 µM, first compound 0.949 µM): 47.3%
viability, T/C (second compound 0.1 µM, first compound 3 µM): 43.6%
viability, T/C (second compound 0.316 µM, first compound 0.00949 µM): 81.5%
viability, T/C (second compound 0.316 µM, first compound 0.03 µM): 92.9%
viability, T/C (second compound 0.316 µM, first compound 0.0949 µM): 68%
viability, T/C (second compound 0.316 µM, first compound 0.3 µM): 101%
viability, T/C (second compound 0.316 µM, first compound 0.949 µM): 68.4%
viability, T/C (second compound 0.316 µM, first compound 3 µM): 50.5%
viability, T/C (second compound 1 µM, first compound 0.00949 µM): 92.5%
viability, T/C (second compound 1 µM, first compound 0.03 µM): 68.5%
viability, T/C (second compound 1 µM, first compound 0.0949 µM): 52.5%
viability, T/C (second compound 1 µM, first compound 0.3 µM): 75.5%
viability, T/C (second compound 1 µM, first compound 0.949 µM): 43.2%
viability, T/C (second compound 1 µM, first compound 3 µM): 53.7%
viability, T/C (second compound 3.16 µM, first compound 0.00949 µM): 71.4%
viability, T/C (second compound 3.16 µM, first compound 0.03 µM): 95.6%
viability, T/C (second compound 3.16 µM, first compound 0.0949 µM): 67.6%
viability, T/C (second compound 3.16 µM, first compound 0.3 µM): 62.8%
viability, T/C (second compound 3.16 µM, first compound 0.949 µM): 74.8%
viability, T/C (second compound 3.16 µM, first compound 3 µM): 56.2%
viability, T/C (second compound 10 µM, first compound 0.00949 µM): 68.9%
viability, T/C (second compound 10 µM, first compound 0.03 µM): 86.4%
viability, T/C (second compound 10 µM, first compound 0.0949 µM): 61.1%
viability, T/C (second compound 10 µM, first compound 0.3 µM): 59.8%
viability, T/C (second compound 10 µM, first compound 0.949 µM): 64%
viability, T/C (second compound 10 µM, first compound 3 µM): 76.5%

O=C(c1ccc(F)c(F)c1Nc1ccc(I)cc1F)N1CC(O)([C@@H]2CCCCN2)C1
viability, T/C (compound 0.00316 µM): 85.1% and 106% and 91%
viability, T/C (compound 0.01 µM): 92.7% and 96% and 89.8%
viability, T/C (compound 0.0316 µM): 61.4% and 68.8% and 91.4%
viability, T/C (compound 0.1 µM): 71.8% and 85.1% and 80.8%
viability, T/C (compound 0.316 µM): 38.6% and 49.1% and 46.9%
viability, T/C (compound 1 µM): 18.4% and 19.7% and 19.3%
IC50 (curve of compound): 0.202 µM and 0.325 µM and 0.284 µM

NC1CCC(NC2CC2c2ccccc2)CC1 (configuration not stated)
viability, T/C (compound 0.000316 µM): 104% and 97.4% and 118%
viability, T/C (compound 0.001 µM): 95.6% and 118% and 95.5%
viability, T/C (compound 0.00316 µM): 86.1% and 99% and 95.9%
viability, T/C (compound 0.01 µM): 99.9% and 127% and 86.2%
viability, T/C (compound 0.0316 µM): 129% and 85.6% and 94.6%
viability, T/C (compound 0.1 µM): 113% and 111% and 102%
IC50 (curve of compound): > 0.1 µM

CCN1CCN(Cc2ccc(Nc3ncc(F)c(-c4cc(F)c5nc(C)n(C(C)C)c5c4)n3)nc2)CC1
viability, T/C (compound 0.00316 µM): 112% and 91.6% and 83.9%
viability, T/C (compound 0.01 µM): 104% and 98.3% and 105%
viability, T/C (compound 0.0316 µM): 91% and 73.6% and 115%
viability, T/C (compound 0.1 µM): 87.1% and 75.9% and 100%
viability, T/C (compound 0.316 µM): 73.9% and 61.4% and 72.9%
viability, T/C (compound 1 µM): 62% and 46.7% and 81.3%
IC50 (curve of compound): > 1 µM and 0.793 µM

C=CC(=O)N1CCN(c2nc(=O)n(-c3c(C)ccnc3C(C)C)c3nc(-c4c(O)cccc4F)c(F)cc23)C(C)C1 (configuration not stated) + Cc1c(S(C)(=O)=O)c(-c2cc(F)cc(N3CCN(c4ccc(NS(=O)(=O)c5ccc(NC(CCN6CCC(C(=O)OCCCP(=O)(O)O)CC6)CSc6ccccc6)c(S(=O)(=O)C(F)(F)F)c5)cc4)CC3)c2)c(-c2ccc(Cl)cc2)n1C(C)C
IC50 [1]: > 10 µM
IC50 [2]: > 10 µM
IC50 [3]: > 10 µM
IC50 [4]: > 10 µM
IC50 [5]: > 10 µM
IC50 [6]: 0.0316 µM
viability, T/C [7]: 93.5%
viability, T/C [8]: 97.2%
viability, T/C [9]: 83.9%
viability, T/C [10]: 79.4%
viability, T/C [11]: 83.8%
viability, T/C [12]: 70.9%
viability, T/C [13]: 84.2%
viability, T/C [14]: 84.3%
viability, T/C [15]: 82.5%
viability, T/C [16]: 89.5%
viability, T/C [17]: 87.7%
viability, T/C [18]: 77%
viability, T/C [19]: 89.7%
viability, T/C [20]: 86.6%
viability, T/C [21]: 76.2%
viability, T/C [22]: 75.5%
viability, T/C [23]: 68.7%
viability, T/C [24]: 66.1%
viability, T/C [25]: 62.6%
viability, T/C [26]: 58.5%
viability, T/C [27]: 72.4%
viability, T/C [28]: 69.5%
viability, T/C [29]: 87.9%
viability, T/C [30]: 73.6%
viability, T/C (second compound 3.16 µM, first compound 0.0316 µM): 72.8%
viability, T/C (second compound 3.16 µM, first compound 0.1 µM): 77.9%
viability, T/C (second compound 3.16 µM, first compound 0.316 µM): 64%
viability, T/C (second compound 3.16 µM, first compound 1 µM): 60.6%
viability, T/C (second compound 3.16 µM, first compound 3.16 µM): 56.3%
viability, T/C (second compound 3.16 µM, first compound 10 µM): 68.9%
viability, T/C (second compound 10 µM, first compound 0.0316 µM): 52.9%
viability, T/C (second compound 10 µM, first compound 0.1 µM): 53.7%
viability, T/C (second compound 10 µM, first compound 0.316 µM): 46.9%
viability, T/C (second compound 10 µM, first compound 1 µM): 55.3%
viability, T/C (second compound 10 µM, first compound 3.16 µM): 83.2%
viability, T/C (second compound 10 µM, first compound 10 µM): 63.7%

O=C(c1cc(Cc2n[nH]c(=O)c3ccccc23)ccc1F)N1CCN(C(=O)C2CC2)CC1 + CNC(C)C(=O)NC1CN(S(=O)(=O)c2cccc(S(=O)(=O)N3CCC4CCC(C(=O)NC(c5ccccc5)c5ccccc5)N4C(=O)C(NC(=O)C(C)NC)C3)c2)CCC2CCC(C(=O)NC(c3ccccc3)c3ccccc3)N2C1=O
IC50 (curve of first compound, second compound 0.00316 µM): > 10 µM
IC50 (curve of first compound, second compound 0.01 µM): > 10 µM
IC50 [1]: > 10 µM
IC50 [2]: > 10 µM
IC50 [3]: > 10 µM
IC50 [4]: > 10 µM
viability, T/C (second compound 0.00316 µM, first compound 0.0316 µM): 61.5%
viability, T/C (second compound 0.00316 µM, first compound 0.1 µM): 57.1%
viability, T/C (second compound 0.00316 µM, first compound 0.316 µM): 55%
viability, T/C (second compound 0.00316 µM, first compound 1 µM): 66.5%
viability, T/C (second compound 0.00316 µM, first compound 3.16 µM): 72.8%
viability, T/C (second compound 0.00316 µM, first compound 10 µM): 65.1%
viability, T/C (second compound 0.01 µM, first compound 0.0316 µM): 127%
viability, T/C (second compound 0.01 µM, first compound 0.1 µM): 98.8%
viability, T/C (second compound 0.01 µM, first compound 0.316 µM): 103%
viability, T/C (second compound 0.01 µM, first compound 1 µM): 89.4%
viability, T/C (second compound 0.01 µM, first compound 3.16 µM): 114%
viability, T/C (second compound 0.01 µM, first compound 10 µM): 87%
viability, T/C [7]: 96.9%
viability, T/C [8]: 73.4%
viability, T/C [9]: 91.3%
viability, T/C [10]: 91.1%
viability, T/C [11]: 84.5%
viability, T/C [12]: 88.3%
viability, T/C [13]: 97.9%
viability, T/C [14]: 83.2%
viability, T/C [15]: 89.7%
viability, T/C [16]: 84.9%
viability, T/C [17]: 94.4%
viability, T/C [18]: 76.4%
viability, T/C [19]: 68.4%
viability, T/C [20]: 86.6%
viability, T/C [21]: 117%
viability, T/C [22]: 97.7%
viability, T/C [23]: 100%
viability, T/C [24]: 95%
viability, T/C [25]: 80.7%
viability, T/C [26]: 84.9%
viability, T/C [27]: 106%
viability, T/C [28]: 99.3%
viability, T/C [29]: 78.1%
viability, T/C [30]: 95.3%
